Experimental data as given in patent US10752595B2, “Crystalline forms of a bromodomain and extraterminal protein inhibitor drug, processes for preparation thereof, and use thereof” (Crystal Pharmaceutical (Suzhou) Co., Ltd., priority 2016, dated 2020).
≈ marks a conversion by molar mass, not a printed value. Entries after “also recorded” stand apart in the source; their conditions may differ.

Columns and labels:
Assay type in all cases: physicochemical
[1] = Solubility study: saturated solutions in SGF and FeSSIF, concentration by HPLC; settings: for Solubility FeSSIF: FeSSIF (fed state simulated intestinal fluids, pH=5.0)
Excerpt: High Performance Liquid Chromatography (HPLC) data in the present disclosure were collected from an Agilent 1260 with Diode Array Detector (DAD). The HPLC method parameters for purity test in the present disclosure are as follows: • 1. Column: Waters XBridge C18 150×4.6 mm, 5 μm • 2. Mobile Phase: A: 0.1% TFA in H2O • B: 0.1% TFA in Acetonitrile
The prepared apabetalone Form CS2 was suspended into SGF (simulated gastric fluids) and FeSSIF (fed state simulated intestinal fluids, pH=5.0) to obtain saturated solutions. After being equilibrated for 1 h and 24 h, concentrations of the saturated solutions were measured by HPLC.
The prepared Form CS8 was suspended into SGF (simulated gastric fluids) and FeSSIF (fed state simulated intestinal fluids, pH=5.0) to obtain saturated solutions. After being equilibrated for 1 h, concentrations of the saturated solutions were measured by HPLC.
The prepared Form CS13 was suspended into SGF (simulated gastric fluids) and FeSSIF (fed state simulated intestinal fluids, pH=5.0) to obtain saturated solutions. After being equilibrated for 1 h, 4 h and 24 h, concentrations of the saturated solutions were measured by HPLC.
The prepared apabetalone Form CS20 was suspended into SGF (simulated gastric fluids) and FeSSIF (fed state simulated intestinal fluids, pH=5.0) to obtain saturated solutions. After being equilibrated for 1 h, 4 h and 24 h, concentrations of the saturated solutions were measured by HPLC.
The prepared solid of apabetalone Form CS1 was suspended into SGF (simulated gastric fluids) and FeSSIF (fed state simulated intestinal fluids, pH=5.0) to obtain saturated solutions. After being equilibrated for 1 h, 4 h and 24 h, concentrations of the saturated solutions were measured by HPLC.
The prepared solid of apabetalone Form CS7 was suspended into SGF (simulated gastric fluids) and FeSSIF (fed state simulated intestinal fluids, pH=5.0) to obtain saturated solutions. After being equilibrated for 1 h, 4 h and 24 h, concentrations of the saturated solutions were measured by HPLC.
The prepared solid of apabetalone Form CS9 was suspended into SGF (simulated gastric fluids) and FeSSIF (fed state simulated intestinal fluids, pH=5.0) to obtain saturated solutions. After being equilibrated for 1 h, 4 h and 24 h, concentrations of the saturated solutions were measured by HPLC.
The prepared solid of apabetalone Form CS11 was suspended into SGF (simulated gastric fluids) and FeSSIF (fed state simulated intestinal fluids, pH=5.0) to obtain saturated solutions. After being equilibrated for 1 h, 4 h and 24 h, concentrations of the saturated solutions were measured by HPLC.
The prepared solid of apabetalone Form CS4 was suspended into SGF (simulated gastric fluids) and FeSSIF (fed state simulated intestinal fluids, pH=5.0) to obtain saturated solutions. After being equilibrated for 1 h, 4 h and 24 h, concentrations of the saturated solutions were measured by HPLC.

[2] = Stability study: open-dish storage in constant temperature and humidity chambers, XRPD and purity check; settings: for Form change and purity decrease after storage: open dish
Protocol: Form CS8 was placed in a constant temperature and humidity chamber at 25° C./60% RH for 2 weeks in open dish. Crystalline form of the sample were tested by XRPD and impurity of the sample were checked. […] Crystalline form of the sample were tested by XRPD and impurity of the sample were checked. […] Two samples of apabetalone Form CS1 were placed in constant temperature and humidity chambers at 25° C./60% RH and 40° C./75% RH for 10 months in open dishes. The samples were characterized by XRPD and chemical impurity. […] Three samples of apabetalone Form CS7 were placed in constant temperature and humidity chambers at 25° C./60% RH and 40° C./75% RH for 4 weeks and 80° C. for 1 day in open dishes. Crystalline form of the sample were tested by XRPD and impurity of the sample were checked. […] Two samples of apabetalone Form CS9 were placed in constant temperature and humidity chambers at 25° C./60% RH and 40° C./75% RH for 10 months in open dishes. Crystalline form of the sample were tested by XRPD and impurity of the sample were tested to check the stability of Form CS9. […] Two samples of apabetalone Form CS11 were placed in constant temperature and humidity chambers at 25° C./60% RH and 40° C./75% RH for 6 weeks in open dishes. Crystalline form of the sample were tested by XRPD and impurity of the sample were tested to check the stability of Form CS11. […] Two samples of apabetalone Form CS4 were placed in open dishes in constant temperature and humidity chambers at 25° C./60% RH and 40° C./75% RH for 10 months. Crystalline form of the sample were tested by XRPD and impurity of the sample were tested to check the stability of Form CS4.

[3] = Hygroscopicity by dynamic vapor sorption (DVS); settings: for Hygroscopicity class: Chinese Pharmacopoeia 2015 criteria, 80% RH; for Hygroscopicity class / Weight Gain under 80% Relative Humidity: 25° C.; for Weight Gain under 80% Relative Humidity: DVS, about 10 mg of sample; for Form change after DVS test (XRPD): XRPD before and after DVS test
Protocol: Dynamic Vapor Sorption (DVS) was measured via a SMS (Surface Measurement Systems Ltd.) intrinsic DVS instrument. Its control software is DVS—Intrinsic control software, and its analysis software is DVS—Intrinsic Analysis software. Typical Parameters for DVS test are as follows: • Temperature: 25° C. • Gas and flow rate: N2, 200 mL/min • dm/dt: 0.002%/min • RH range: 0% RH to 95% RH Dynamic vapor sorption (DVS) was applied to test hygroscopicity of Form CS8 in the present disclosure with about 10 mg of sample. […] Dynamic vapor sorption (DVS) was applied to test hygroscopicity of Form CS1 of the present disclosure with about 10 mg of sample. […] Dynamic vapor sorption (DVS) was applied to test hygroscopicity of Form CS7 of the present disclosure with about 10 mg of samples. Dynamic vapor sorption (DVS) was applied to test hygroscopicity of Form CS9 of the present disclosure with about 10 mg of sample. […] Dynamic vapor sorption (DVS) was applied to test hygroscopicity of Form CS4 of the present disclosure with about 10 mg of sample.

[4] = SGF (simulated gastric fluids), equilibrated 1 h
[5] = SGF (simulated gastric fluids), equilibrated 4 h
[6] = SGF (simulated gastric fluids), equilibrated 24 h

Compound | Solubility SGF [1, 4] | Solubility SGF [1, 5] | Solubility SGF [1, 6] | Time the form is stable when stored ([2]; 25° C./60% RH) | Time the form is stable when stored ([2]; 40° C./75% RH) | Solubility FeSSIF ([1]; equilibrated 1 h) | Weight Gain under 80% Relative Humidity [3] | Form change after DVS test (XRPD) [3] | Solubility FeSSIF ([1]; equilibrated 4 h) | Solubility FeSSIF ([1]; equilibrated 24 h) | Hygroscopicity class [3] | also measured
COc1cc(OC)c2c(=O)[nH]c(-c3cc(C)c(OCCO)c(C)c3)nc2c1 [Form CS8, 2-[4-(2-hydroxyethoxy)-3,5-dimethylphenyl]-5,7-dimethoxyquinazolin-4(3H)-one] | 430 µg/mL (≈ 1160 µM) | – | – | at least 2 weeks | – | 280 µg/mL (≈ 756 µM) | 0.34% | No form change | – | – | slightly hygroscopic (Increase in mass is less than 2 percent and equal to or greater than 0.2 percent) | Form change and purity decrease after storage ([2]; 25° C./60% RH, 2 weeks): No obvious form change and purity decrease
COc1cc(OC)c2c(=O)[nH]c(-c3cc(C)c(OCCO)c(C)c3)nc2c1 [Form CS9, 2-[4-(2-hydroxyethoxy)-3,5-dimethylphenyl]-5,7-dimethoxyquinazolin-4(3H)-one] | 300 µg/mL (≈ 810 µM) | 310 µg/mL (≈ 837 µM) | 370 µg/mL (≈ 999 µM) | at least 10 months | at least 10 months | 170 µg/mL (≈ 459 µM) | 0.18% | doesn't change; also recorded: No form change | 130 µg/mL (≈ 351 µM) | 200 µg/mL (≈ 540 µM) | almost non hygroscopic | Form change and purity decrease after storage ([2]; 25° C./60% RH, 10 months): No form change and obvious purity decrease; Form change and purity decrease after storage ([2]; 40° C./75% RH, 10 months): No form change and obvious purity decrease
COc1cc(OC)c2c(=O)[nH]c(-c3cc(C)c(OCCO)c(C)c3)nc2c1 [Form CS7, 2-[4-(2-hydroxyethoxy)-3,5-dimethylphenyl]-5,7-dimethoxyquinazolin-4(3H)-one] | 380 µg/mL (≈ 1030 µM) | 420 µg/mL (≈ 1130 µM) | 580 µg/mL (≈ 1570 µM) | at least 4 weeks | at least 4 weeks | 190 µg/mL (≈ 513 µM) | 0.79% | No form change | 170 µg/mL (≈ 459 µM) | 290 µg/mL (≈ 783 µM) | slightly hygroscopic (Increase in mass is less than 2 percent and equal to or greater than 0.2 percent) | Form change and purity decrease after storage ([2]; 25° C./60% RH, 4 weeks): No form change and obvious purity decrease; Form change and purity decrease after storage ([2]; 40° C./75% RH, 4 weeks): No form change and obvious purity decrease; Form change and purity decrease after storage ([2]; 80° C., 1 day): No form change and obvious purity decrease
COc1cc(OC)c2c(=O)[nH]c(-c3cc(C)c(OCCO)c(C)c3)nc2c1 [Form CS20, 2-[4-(2-hydroxyethoxy)-3,5-dimethylphenyl]-5,7-dimethoxyquinazolin-4(3H)-one] | 440 µg/mL (≈ 1190 µM) | 410 µg/mL (≈ 1110 µM) | 510 µg/mL (≈ 1380 µM) | at least 2 weeks | at least 2 weeks | 190 µg/mL (≈ 513 µM) | – | – | 160 µg/mL (≈ 432 µM) | 220 µg/mL (≈ 594 µM) | – | Form change and purity decrease after storage ([2]; 25° C./60% RH, 2 weeks): No form change and obvious purity decrease; Form change and purity decrease after storage ([2]; 40° C./75% RH, 2 weeks): No form change and obvious purity decrease

Now from value to compound, other results behind:

Solubility SGF [1, 4] | Solubility SGF [1, 5] | Solubility SGF [1, 6] | Time the form is stable when stored ([2]; 25° C./60% RH) | Time the form is stable when stored ([2]; 40° C./75% RH) | Solubility FeSSIF ([1]; equilibrated 1 h) | Weight Gain under 80% Relative Humidity [3] | Form change after DVS test (XRPD) [3] | Solubility FeSSIF ([1]; equilibrated 4 h) | Solubility FeSSIF ([1]; equilibrated 24 h) | Compound | Hygroscopicity class [3] | also measured
710 µg/mL (≈ 1920 µM) | 650 µg/mL (≈ 1750 µM) | 650 µg/mL (≈ 1750 µM) | at least 6 weeks | at least 6 weeks | – | – | – | – | – | COc1cc(OC)c2c(=O)[nH]c(-c3cc(C)c(OCCO)c(C)c3)nc2c1 [Form CS11, 2-[4-(2-hydroxyethoxy)-3,5-dimethylphenyl]-5,7-dimethoxyquinazolin-4(3H)-one] | – | Form change and purity decrease after storage ([2]; 25° C./60% RH, 6 weeks): No form change and obvious purity decrease; Form change and purity decrease after storage ([2]; 40° C./75% RH, 6 weeks): No form change and obvious purity decrease
350 µg/mL (≈ 945 µM) | 310 µg/mL (≈ 837 µM) | 330 µg/mL (≈ 891 µM) | – | – | 130 µg/mL (≈ 351 µM) | – | – | 140 µg/mL (≈ 378 µM) | 140 µg/mL (≈ 378 µM) | COc1cc(OC)c2c(=O)[nH]c(-c3cc(C)c(OCCO)c(C)c3)nc2c1 [Form CS13, 2-[4-(2-hydroxyethoxy)-3,5-dimethylphenyl]-5,7-dimethoxyquinazolin-4(3H)-one] | – | –
490 µg/mL (≈ 1320 µM) | – | – | – | – | 150 µg/mL (≈ 405 µM) | – | – | – | 240 µg/mL (≈ 648 µM) | COc1cc(OC)c2c(=O)[nH]c(-c3cc(C)c(OCCO)c(C)c3)nc2c1 [Form CS2, 2-[4-(2-hydroxyethoxy)-3,5-dimethylphenyl]-5,7-dimethoxyquinazolin-4(3H)-one] | – | solubility at 24 h ([1]; SGF (simulated gastric fluids), simulated gastric fluid, thermodynamic from solid, equilibrated 24 h): 610 µg/mL (≈ 1650 µM)
